Like-named read-outs stand apart in the source and are kept apart here. Where a SMILES comes first, the peptide text is derived from it. Bridges are numbered along the chain shown (N, C = ends). [ ]: non-standard residue; d: D form. The star is where a group is joined. Heptanoyl(6-Me) = CC(C)CCCCC(=O)*; Dab = NCC[C@H](N)C(=O)O
Experiments:
Experiment in all cases: Antibacterial activity MIC assay (two-fold dilution agar plating)
Format in all cases: cell-based
Serratia marcescens = Serratia marcescens ATCC 21074; for MIC: ATCC21074, read-out: Minimal Inhibitory Concentration (MIC)
Experimental: (§1) Antibacterial Activity-Evaluating Method (MIC Assay)
(§2) In this study, the compounds of the present invention were tested for their antibacterial activities by using two-fold dilution agar plating method and Denley Multipoint Inoculator A400 according to the guidelines of the CLSI/NCCLS standard. The tested strains were amplified by hydrolyzed casein peptone (Mueller-Hinton Agar) broth and Brain and Heart Infusion. The strains used in this study were bacterial strains that were purchased from ATCC or clinically isolated in Chinese hospitals. Aztreonam, polymyxin or levofloxacin was used as positive control. The drugs were diluted with hydrolyzed casein peptone broth to the desired concentrations including 128.0, 64.0, 32.0, 16.0, 8.0, 4.0, 2.0, 1.0, 0.5, 0.25, 0.125, 0.06 and 0.03 μg/mL, and then placed respectively into each well and mixed thoroughly. After inoculation, the tested strains were incubated for 18 hours at a constant temperature of 35° C., and their growth levels were observed. The drug concentration with no microbial growth in the well was recorded as the lowest Minimal Inhibitory Concentration (MIC).

Acinetobacter baumannii = details: for MIC: Acinetobacter baumannii, read-out: Minimal Inhibitory Concentration (MIC)
Experimental: as §1, §2

Proteus vulgaris = details: for MIC: Proteus vulgaris, ATCC29905, Proteus vulgaris ATCC 29905, read-out: Minimal Inhibitory Concentration (MIC)
Experimental: as §1, §2

Enterobacter cloacae = details: for MIC: read-out: Minimal Inhibitory Concentration (MIC)
Experimental: as §1, §2

Salmonella typhi = details: for MIC: Salmonella enterica, TYPHI, read-out: Minimal Inhibitory Concentration (MIC)
Experimental: as §1, §2

[1] = system: Stenotrophomonas maltophilia; details: Stenotrophomonas maltophilia ATCC 13636; for MIC: ATCC13636, read-out: Minimal Inhibitory Concentration (MIC)
Experimental: as §1, §2

Escherichia coli = details: for MIC: Escherichia coli, read-out: Minimal Inhibitory Concentration (MIC)
Experimental: as §1, §2

Klebsiella Pneumoniae = details: for MIC: Klebsiella pneumoniae, read-out: Minimal Inhibitory Concentration (MIC)
Experimental: as §1, §2

Pseudomonas aeruginosa = details: for MIC: read-out: Minimal Inhibitory Concentration (MIC)
Experimental: as §1, §2

Shigella flexneri = Shigella flexneri ATCC 12022; for MIC: ATCC12022, read-out: Minimal Inhibitory Concentration (MIC)
Experimental: as §1, §2

Enterobacter aerogenes = Enterobacter aerogenes ATCC 13048; for MIC: Klebsiella aerogenes, ATCC13048, read-out: Minimal Inhibitory Concentration (MIC)
Experimental: as §1, §2

Proteus mirabilis = details: for MIC: Proteus mirabilis, ATCC49565, Proteus mirabilis ATCC 49565, read-out: Minimal Inhibitory Concentration (MIC)
Experimental: as §1, §2

Providencia rettgeri = details: for MIC: Providencia rettgeri, ATCC31052, Providencia rettgeri ATCC 31052, read-out: Minimal Inhibitory Concentration (MIC)
Experimental: as §1, §2

Citrobacter freundii = Citrobacter freundii ATCC 43864; for MIC: ATCC43864, read-out: Minimal Inhibitory Concentration (MIC)
Experimental: as §1, §2

[2] = ATCC19606, Acinetobacter baumannii ATCC 19606
[3] = ATCC43560, Enterobacter cloacae ATCC 43560
[4] = Enterobacter cloacae CDC1000654
[5] = ATCC25922, Escherichia coli ATCC 25922, ESBLs(−)
[6] = ATCC35218, Escherichia coli ATCC 35218, ESBLs(+)
[7] = Escherichia coli 08-85, mcr-1(+)
[8] = Escherichia coli 13-43, mcr-1(+)
[9] = Escherichia coli 13-66, mcr-1(+)
[10] = Escherichia coli 16-1, ESBLs(+)
[11] = Escherichia coli 16-7, ESBLs(−)
[12] = Escherichia coli 17-R28, CRE, NDM-1(+)
[13] = Escherichia coli CDC1001728, NDM-1(+)
[14] = ATCC700603, Klebsiella Pneumoniae ATCC 700603, ESBLs(+)
[15] = ATCCBAA2146, Klebsiella Pneumoniae ATCC BAA-2146, NDM-1(+)
[16] = Klebsiella Pneumoniae 09-20, mcr-1(+)
[17] = Klebsiella Pneumoniae 16-2, ESBLs(−)
[18] = Klebsiella Pneumoniae 16-14, ESBLs(+)
[19] = Klebsiella Pneumoniae 17-R27, CRE
[20] = ATCC27853, Pseudomonas aeruginosa ATCC 27853

C[C@H]1[C@H](NC(=O)/C(=N\OC(C)(C)C(=O)O)c2csc(N)n2)C(=O)N1S(=O)(=O)O [AZN, aztreonam, reference compound]
32 µg/mL: MIC (Acinetobacter baumannii; [2]) | MIC (Acinetobacter baumannii; Acinetobacter baumannii 16-33) | MIC [1] | MIC (Klebsiella Pneumoniae; [14])
0.25 µg/mL: MIC (Klebsiella Pneumoniae; [16]) | MIC (Klebsiella Pneumoniae; [19]) | MIC (Shigella flexneri)
4 µg/mL: MIC (Escherichia coli; [7]) | MIC (Escherichia coli; [13]) | MIC (Klebsiella Pneumoniae; [18]) | MIC (Pseudomonas aeruginosa; [20]) | MIC (Pseudomonas aeruginosa; Pseudomonas aeruginosa PAO1)
8 µg/mL: MIC (Escherichia coli; [8]) | MIC (Escherichia coli; [9])
0.06 µg/mL: MIC (Escherichia coli; [5]) | MIC (Escherichia coli; [11]) | MIC (Klebsiella Pneumoniae; [17])
≤ 0.03 µg/mL: MIC (Proteus vulgaris) | MIC (Enterobacter cloacae; [3]) | MIC (Salmonella typhi) | MIC (Escherichia coli; [6]) | MIC (Escherichia coli; [10]) | MIC (Proteus mirabilis) | MIC (Providencia rettgeri)
128 µg/mL: MIC (Acinetobacter baumannii; Acinetobacter baumannii 16-16)
16 µg/mL: MIC (Escherichia coli; [12])
> 128 µg/mL: MIC (Enterobacter cloacae; [4]) | MIC (Klebsiella Pneumoniae; [15]) | MIC (Pseudomonas aeruginosa; Pseudomonas aeruginosa 16-11)
0.12 µg/mL: MIC (Serratia marcescens) | MIC (Enterobacter aerogenes) | MIC (Citrobacter freundii)

CC(C)CCCCC(=O)N[C@@H](CCN)C(=O)N[C@H](C(=O)N[C@@H](CCN)C(=O)N[C@H]1CCNC(=O)[C@H]([C@@H](C)O)NC(=O)[C@H](CCN)NC(=O)[C@H](CCN)NC(=O)[C@H](CC(C)C)NC(=O)[C@@H](CC(C)C)NC(=O)[C@H](CCN)NC1=O)[C@@H](C)O [Colistin B, colistin B, reference compound] ({Heptanoyl(6-Me)}-[Dab]T[Dab][Dab][Dab][dL]L[Dab][Dab]T; lactam 4-C)
0.5 µg/mL: Minimal Inhibitory Concentration (MIC) (Escherichia coli; [10]) | Minimal Inhibitory Concentration (MIC) (Shigella flexneri)
1 µg/mL: Minimal Inhibitory Concentration (MIC) (Acinetobacter baumannii; Acinetobacter baumannii 16-16) | Minimal Inhibitory Concentration (MIC) (Acinetobacter baumannii; Acinetobacter baumannii ATCC 19606) | Minimal Inhibitory Concentration (MIC) (Enterobacter cloacae; [4]) | Minimal Inhibitory Concentration (MIC) (Salmonella typhi; Salmonella typhi H901) | Minimal Inhibitory Concentration (MIC) (Escherichia coli; [11]) | Minimal Inhibitory Concentration (MIC) (Escherichia coli; Escherichia coli ATCC 25922, ESBLs(−)) | Minimal Inhibitory Concentration (MIC) (Escherichia coli; Escherichia coli ATCC 35218, ESBLs(+)) | Minimal Inhibitory Concentration (MIC) (Escherichia coli; [13]) | Minimal Inhibitory Concentration (MIC) (Klebsiella Pneumoniae; [17]) | Minimal Inhibitory Concentration (MIC) (Klebsiella Pneumoniae; [18]) | Minimal Inhibitory Concentration (MIC) (Klebsiella Pneumoniae; Klebsiella Pneumoniae ATCC BAA-2146, NDM-1(+))
4 µg/mL: Minimal Inhibitory Concentration (MIC) (Pseudomonas aeruginosa; Pseudomonas aeruginosa 16-11) | Minimal Inhibitory Concentration (MIC) (Pseudomonas aeruginosa; Pseudomonas aeruginosa ATCC 27853)
16 µg/mL: Minimal Inhibitory Concentration (MIC) (Klebsiella Pneumoniae; [16])
2 µg/mL: Minimal Inhibitory Concentration (MIC) (Acinetobacter baumannii; Acinetobacter baumannii 16-33) | Minimal Inhibitory Concentration (MIC) (Klebsiella Pneumoniae; Klebsiella Pneumoniae ATCC 700603, ESBLs(+)) | Minimal Inhibitory Concentration (MIC) (Enterobacter aerogenes) | Minimal Inhibitory Concentration (MIC) (Citrobacter freundii)
>64 µg/mL: Minimal Inhibitory Concentration (MIC) (Serratia marcescens) | Minimal Inhibitory Concentration (MIC) (Proteus vulgaris; Proteus vulgaris ATCC 29905) | Minimal Inhibitory Concentration (MIC) (Enterobacter cloacae; Enterobacter cloacae ATCC 43560) | Minimal Inhibitory Concentration (MIC) [1] | Minimal Inhibitory Concentration (MIC) (Proteus mirabilis; Proteus mirabilis ATCC 49565) | Minimal Inhibitory Concentration (MIC) (Providencia rettgeri; Providencia rettgeri ATCC 31052)
8 µg/mL: Minimal Inhibitory Concentration (MIC) (Escherichia coli; [7]) | Minimal Inhibitory Concentration (MIC) (Escherichia coli; [8]) | Minimal Inhibitory Concentration (MIC) (Escherichia coli; [9]) | Minimal Inhibitory Concentration (MIC) (Pseudomonas aeruginosa; Pseudomonas aeruginosa PAO1)

CC1(C)[C@H](NC(=O)/C(=N\OC2(C(=O)O)CC2)c2csc(N)n2)C(=O)N1OS(=O)(=O)O [Compound A-1]
0.12 µg/mL: MIC (Escherichia coli; [5]) | MIC (Escherichia coli; [7]) | MIC (Escherichia coli; [8]) | MIC (Escherichia coli; [9]) | MIC (Escherichia coli; [11]) | MIC (Klebsiella Pneumoniae; [18]) | MIC (Shigella flexneri) | MIC (Enterobacter aerogenes) | MIC (Citrobacter freundii)
0.5 µg/mL: MIC (Klebsiella Pneumoniae; [15])
8 µg/mL: MIC [1] | MIC (Pseudomonas aeruginosa; [20]) | MIC (Pseudomonas aeruginosa; Pseudomonas aeruginosa 16-11)
4 µg/mL: MIC (Escherichia coli; [12]) | MIC (Klebsiella Pneumoniae; [14])
2 µg/mL: MIC (Enterobacter cloacae; [4]) | MIC (Klebsiella Pneumoniae; [17]) | MIC (Pseudomonas aeruginosa; Pseudomonas aeruginosa PAO1)
64 µg/mL: MIC (Acinetobacter baumannii; Acinetobacter baumannii 16-16)
32 µg/mL: MIC (Acinetobacter baumannii; Acinetobacter baumannii 16-33)
≤ 0.03 µg/mL: MIC (Proteus vulgaris) | MIC (Proteus mirabilis) | MIC (Providencia rettgeri)
16 µg/mL: MIC (Acinetobacter baumannii; [2])
0.06 µg/mL: MIC (Enterobacter cloacae; [3]) | MIC (Salmonella typhi) | MIC (Escherichia coli; [6]) | MIC (Escherichia coli; [10]) | MIC (Klebsiella Pneumoniae; [16])
0.25 µg/mL: MIC (Serratia marcescens) | MIC (Escherichia coli; [13]) | MIC (Klebsiella Pneumoniae; [19])

From US12497393B2, “β-lactam compound, use thereof and preparation method therefor” (priority 2020, dated 2025)
